We go through 21 compounds from patent US20240124417A1, “COMPOUNDS USEFUL AS IMMUNOMODULATORS” (Bristol-Myers Squibb Company, priority 2019, published 2024).

For this assay, the target named is T1, PD-1/PD-L1 (Homo sapiens, UniProt Q9NZQ7).
T1 construct: TVMV protease site linker (C); made in house; host or cells: HEK293T cells
T1 sequence (Q9NZQ7 18-239): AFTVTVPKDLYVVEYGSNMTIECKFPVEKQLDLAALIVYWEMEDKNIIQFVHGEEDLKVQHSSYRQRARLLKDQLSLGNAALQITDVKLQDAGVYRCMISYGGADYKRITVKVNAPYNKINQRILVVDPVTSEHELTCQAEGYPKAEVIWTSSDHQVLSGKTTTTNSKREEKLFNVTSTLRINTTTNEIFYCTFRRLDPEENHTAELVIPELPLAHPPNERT
The assay can be described thus: PD-1/PD-L1 Homogenous Time-Resolved Fluorescence (HTRF) binding assay. The following applies: PD-L1-His 10 nM, PD-1-Ig 20 nM. The essentials: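 Time-resolved FRET read-out using Eu-cryptate anti-Ig (1 nM final) and APC anti-His (20 nM final). Tagged extracellular domains were used in BSA/Tween-20-supplemented dPBS, with compound pre-incubated 15 min with PD-L1-His (10 nM) before PD-1-Ig (20 nM) was added for 15 min. Other human pairs: PD-L2-His 5 nM with PD-1-Ig 20 nM; PD-L1-Ig 10 nM with CD80-His 100 nM.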
(In TR-FRET formats the signal depends on donor and acceptor labels being close together.)
Take `Cc1c(COc2cc(OCc3cncc(C#N)c3)c(CNCc3ccnc(C#N)n3)cc2Cl)cccc1-c1cccc(OCCCN2CC[C@@H](O)C2)c1C` [Example 2040, (R)-4-(((5-chloro-2-((5-cyanopyridin-3-yl)methoxy)-4-((3′-(3-(3-hydroxypyrrolidin-1-yl)propoxy)-2,2′-dimethyl-[1,1′-biphenyl]-3-yl)methoxy)benzyl)amino)methyl)pyrimidine-2-carbonitrile]: the IC50 is 8.2 nM.

For the compound `Cc1c(COc2cc(OCc3cncc(C#N)c3)c(CNCc3ccnc(C(N)=O)n3)cc2Cl)cccc1-c1cccc(OCCCN2CC[C@@H](O)C2)c1C` [Example 2041, (R)-4-(((5-chloro-2-((5-cyanopyridin-3-yl)methoxy)-4-((3′-(3-(3-hydroxypyrrolidin-1-yl)propoxy)-2,2′-dimethyl-[1,1′-biphenyl]-3-yl)methoxy)benzyl)amino)methyl)pyrimidine-2-carboxamide], the IC50 turned out to be 1.9 nM.

`Cc1[nH]cnc1COc1cc(OCc2cccc(-c3cccc(OCCCN4CC[C@@H](O)C4)c3C)c2C)c(Cl)cc1CNCc1ccnc(C#N)n1` [Example 2042, (R)-4-(((5-chloro-4-((3′-(3-(3-hydroxypyrrolidin-1-yl)propoxy)-2,2′-dimethyl-[1,1′-biphenyl]-3-yl)methoxy)-2-((5-methyl-1H-imidazol-4-yl)methoxy)benzyl)amino)methyl)pyrimidine-2-carbonitrile]: the IC50 was 89.5 nM.

In the case of `Cc1c(COc2cc(OCc3ncn(C(c4ccccc4)(c4ccccc4)c4ccccc4)c3C)c(CNCc3ccnc(C#N)n3)cc2Cl)cccc1-c1cccc(OCCCN2CC[C@@H](O)C2)c1C` [Example 2043, (R)-4-(((5-chloro-4-((3′-(3-(3-hydroxypyrrolidin-1-yl)propoxy)-2,2′-dimethyl-[1,1′-biphenyl]-3-yl)methoxy)-2-((5-methyl-1-trityl-1H-imidazol-4-yl)methoxy)benzyl)amino)methyl)pyrimidine-2-carbonitrile], the IC50 was over 10000 nM.

`Cc1c(COc2cc(OCc3cncc(C#N)c3)c(CNCc3ccnc(C#N)n3)cc2Cl)cccc1-c1cccc(OCCCN2CCC(O)(CO)CC2)c1Cl` [Example 2044, 4-(((5-chloro-4-((2′-chloro-3′-(3-(4-hydroxy-4-(hydroxymethyl)piperidin-1-yl)propoxy)-2-methyl-[1,1′-biphenyl]-3-yl)methoxy)-2-((5-cyanopyridin-3-yl)methoxy)benzyl)amino)methyl)pyrimidine-2-carbonitrile] registered an IC50 of 1.4 nM.

Turning to `Cc1c(COc2cc(OCc3cncc(C#N)c3)c(CN(C)Cc3ccnc(C#N)n3)cc2Cl)cccc1-c1cccc(OCCCN2CC[C@@H](O)C2)c1C` [Example 2045, (R)-4-(((5-chloro-2-((5-cyanopyridin-3-yl)methoxy)-4-((3′-(3-(3-hydroxypyrrolidin-1-yl)propoxy)-2,2′-dimethyl-[1,1′-biphenyl]-3-yl)methoxy)benzyl) (methyl)amino)methyl)pyrimidine-2-carbonitrile], the IC50 is 16.4 nM.

Take `Cc1c(COc2cc(OCc3cncc(C#N)c3)c(CNCc3cncs3)cc2Cl)cccc1-c1cccc(OC2CCN(C)CC2)c1Cl` [Example 2046, 5-((4-chloro-5-((2′-chloro-2-methyl-3′-((1-methylpiperidin-4-yl)oxy)-[1,1′-biphenyl]-3-yl)methoxy)-2-(((thiazol-5-ylmethyl)amino)methyl)phenoxy)methyl)nicotinonitrile]: the IC50 turned out to be 32.3 nM.

`Cc1c(COc2cc(OCc3cncc(C#N)c3)c(CNCc3cnc[nH]3)cc2Cl)cccc1-c1cccc(OC2CCN(C)CC2)c1Cl` [Example 2047, 5-((2-((((1H-imidazol-5-yl)methyl)amino)methyl)-4-chloro-5-((2′-chloro-2-methyl-3′-((1-methylpiperidin-4-yl)oxy)-[1,1′-biphenyl]-3-yl)methoxy)phenoxy)methyl)nicotinonitrile]: the half-maximal inhibitory concentration (IC50) is 3.5 nM.

In turn, `Cc1c(COc2cc(OCc3cncc(C#N)c3)c(CN(C)Cc3cncs3)cc2Cl)cccc1-c1cccc(OC2CCN(C)CC2)c1Cl` [Example 2048, 5-((4-chloro-5-((2′-chloro-2-methyl-3′-((1-methylpiperidin-4-yl)oxy)-[1,1′-biphenyl]-3-yl)methoxy)-2-((methyl(thiazol-5-ylmethyl)amino)methyl)phenoxy)methyl)nicotinonitrile] returned an IC50 of 355 nM.

`Cc1c(COc2cc(OCc3cncc(C#N)c3)c(CN(C)Cc3cnc[nH]3)cc2Cl)cccc1-c1cccc(OC2CCN(C)CC2)c1Cl` [Example 2049, 5-((2-((((1H-imidazol-5-yl)methyl)(methyl)amino)methyl)-4-chloro-5-((2′-chloro-2-methyl-3′-((1-methylpiperidin-4-yl)oxy)-[1,1′-biphenyl]-3-yl)methoxy)phenoxy)methyl)nicotinonitrile]: the IC50 worked out at 1.6 nM.

`Cc1c(COc2cc(OCc3cncnc3)c(CNCc3ncc[nH]3)cc2Cl)cccc1-c1cccc(OCCCN2CC[C@@H](O)C2)c1C` [Example 2050, (R)-1-(3-((3′-((4-((((1H-imidazol-2-yl)methyl)amino)methyl)-2-chloro-5-(pyrimidin-5-ylmethoxy)phenoxy)methyl)-2,2′-dimethyl-[1,1′-biphenyl]-3-yl)oxy)propyl)pyrrolidin-3-ol] registered an IC50 of 1.7 nM.

The compound `Cc1c(COc2cc(OCc3cncnc3)c(CNCc3cn[nH]c3)cc2Cl)cccc1-c1cccc(OCCCN2CC[C@@H](O)C2)c1C` [Example 2051, (R)-1-(3-((3′-((4-((((1H-pyrazol-4-yl)methyl)amino)methyl)-2-chloro-5-(pyrimidin-5-ylmethoxy)phenoxy)methyl)-2,2′-dimethyl-[1,1′-biphenyl]-3-yl)oxy)propyl)pyrrolidin-3-ol] displayed an IC50 of 2 nM.

In turn, `Cc1c(COc2cc(OCc3cncc(C#N)c3)c(CNCc3cn[nH]c3)cc2Cl)cccc1-c1cccc(OC2CCC(N3CCCC3)CC2)c1Cl` (stereo not drawn) [Example 2052, 5-((2-((((1H-pyrazol-4-yl)methyl)amino)methyl)-4-chloro-5-((2′-chloro-2-methyl-3′-((4-(pyrrolidin-1-yl)cyclohexyl)oxy)-[1,1′-biphenyl]-3-yl)methoxy)phenoxy)methyl)nicotinonitrile] came in with an IC50 of 9.6 nM.

The compound `Cc1c(COc2cc(OCc3cncc(C#N)c3)c(CNCc3ncc[nH]3)cc2Cl)cccc1-c1cccc(OC2CCC(N3CCCC3)CC2)c1Cl` (stereo not drawn) [Example 2053, 5-((2-((((1H-imidazol-2-yl)methyl)amino)methyl)-4-chloro-5-((2′-chloro-2-methyl-3′-((4-(pyrrolidin-1-yl)cyclohexyl)oxy)-[1,1′-biphenyl]-3-yl)methoxy)phenoxy)methyl)nicotinonitrile] had an IC50 of 2.9 nM.

Compound `Cc1c(COc2cc(OCc3cccnn3)c(CNCc3cn[nH]c3)cc2Cl)cccc1-c1cccc(OCC2CCCN(C)C2)c1Cl` (stereo not drawn) [Example 2054, N-((1H-pyrazol-4-yl)methyl)-1-(5-chloro-4-((2′-chloro-2-methyl-3′-((1-methylpiperidin-3-yl)methoxy)-[1,1′-biphenyl]-3-yl)methoxy)-2-(pyridazin-3-ylmethoxy)phenyl)methanamine] showed an IC50 of 5.6 nM.

For `Cc1c(COc2cc(OCc3cccnn3)c(CNCc3ncc[nH]3)cc2Cl)cccc1-c1cccc(OCC2CCCN(C)C2)c1Cl` (stereo not drawn) [Example 2055, N-((1H-imidazol-2-yl)methyl)-1-(5-chloro-4-((2′-chloro-2-methyl-3′-((1-methylpiperidin-3-yl)methoxy)-[1,1′-biphenyl]-3-yl)methoxy)-2-(pyridazin-3-ylmethoxy)phenyl)methanamine], the IC50 turned out to be 3.1 nM.

`COc1cc(OCc2cccc(-c3cccc(OCC4CCCN(C)C4)c3Cl)c2C)c(Cl)cc1CNCc1cn[nH]c1` (stereo not drawn) [Example 2056, N-((1H-pyrazol-4-yl)methyl)-1-(5-chloro-4-((2′-chloro-2-methyl-3′-((1-methylpiperidin-3-yl)methoxy)-[1,1′-biphenyl]-3-yl)methoxy)-2-methoxyphenyl)methanamine] had an IC50 of 3.5 nM.

As for `COc1cc(OCc2cccc(-c3cccc(OCC4CCCN(C)C4)c3Cl)c2C)c(Cl)cc1CNCc1ncc[nH]1` (stereo not drawn) [Example 2057, N-((1H-imidazol-2-yl)methyl)-1-(5-chloro-4-((2′-chloro-2-methyl-3′-((1-methylpiperidin-3-yl)methoxy)-[1,1′-biphenyl]-3-yl)methoxy)-2-methoxyphenyl)methanamine], the IC50 was determined as 6.3 nM.

On to `Cc1c(COc2cc(OCc3cnccn3)c(CNCc3cccnn3)cc2Cl)cccc1-c1cccc(OCC2CCCN(C)C2)c1Cl` (stereo not drawn) [Example 2058, N-(5-chloro-4-((2′-chloro-2-methyl-3′-((1-methylpiperidin-3-yl)methoxy)-[1,1′-biphenyl]-3-yl)methoxy)-2-(pyrazin-2-ylmethoxy)benzyl)-1-(pyridazin-3-yl)methanamine], for which the IC50 came to 3.9 nM.

Regarding `Cc1c(COc2cc(OCc3cnccn3)c(CNCc3ncccn3)cc2Cl)cccc1-c1cccc(OCC2CCCN(C)C2)c1Cl` (stereo not drawn) [Example 2059, N-(5-chloro-4-((2′-chloro-2-methyl-3′-((1-methylpiperidin-3-yl)methoxy)-[1,1′-biphenyl]-3-yl)methoxy)-2-(pyrazin-2-ylmethoxy)benzyl)-1-(pyrimidin-2-yl)methanamine], the IC50 was found to be 4.4 nM.

In turn, `Cc1c(COc2cc(OCc3cnccn3)c(CNCc3c[nH]cn3)cc2Cl)cccc1-c1cccc(OCC2CCCN(C)C2)c1Cl` (stereo not drawn) [Example 2060, N-((1H-imidazol-4-yl)methyl)-1-(5-chloro-4-((2′-chloro-2-methyl-3′-((1-methylpiperidin-3-yl)methoxy)-[1,1′-biphenyl]-3-yl)methoxy)-2-(pyrazin-2-ylmethoxy)phenyl)methanamine] returned an IC50 of 1.9 nM.

One may read the IC50 as the concentration at which inhibition is half-maximal. A higher IC50 goes with weaker potency in that assay.
